Source: ChEMBL document CHEMBL1125176, “Synthesis of structural analogues of lyngbyatoxin A and their evaluation as activators of protein kinase C” (J Med Chem, 1991)

Each compound was assayed against Protein kinase C (PKC) (Homo sapiens) (UniProt O94806+P41743+P17252+P05129+Q05655+P05771+Q05513+Q02156+P24723+Q15139+Q04759) (assay: Activation of partially purified HeLa cell protein kinase C, 32P incorporation into calf thymus histone(III-S).).
Work on `CC(C)=CCCCc1ccc2c3c(c[nH]c13)C[C@@H](CO)NC(=O)[C@H](C(C)C)N2C` yielded an Activity (pM min-1 (mg of protein)-1) of 763. With `CCCCCCc1ccc2c3c(c[nH]c13)C[C@@H](CO)NC(=O)[C@H](C(C)C)N2C` the Activity (pM min-1 (mg of protein)-1) was 606. With `CC(C)[C@H]1C(=O)N[C@@H](CO)Cc2c[nH]c3c(CCCCO)ccc(c23)N1C` the Activity (pM min-1 (mg of protein)-1) was 163. For `CC(C)[C@H]1C(=O)N[C@H](CO)Cc2c[nH]c3c(CCCCO[Si](C)(C)C(C)(C)C)ccc(c23)N1C`, the Activity (pM min-1 (mg of protein)-1) was 703. With `CCCCCCCCCCCCCC(=O)O[C@@H]1[C@@H](C)[C@@]2(O)[C@@H](C=C(CO)C[C@]3(O)C(=O)C(C)=C[C@@H]23)[C@@H]2C(C)(C)[C@]12OC(C)=O` the Activity (pM min-1 (mg of protein)-1) was 899. `CC(C)=CCCCc1ccc2c3c(c[nH]c13)C[C@H](CO)NC(=O)[C@H](C(C)C)N2C` gave an Activity (pM min-1 (mg of protein)-1) of 415. `CC(C)[C@H]1C(=O)N[C@H](CO)Cc2c[nH]c3c(CCCCO)ccc(c23)N1C` gave an Activity (pM min-1 (mg of protein)-1) of 256. `CC(C)[C@H]1C(=O)N[C@H](CO)Cc2c[nH]c3cccc(c23)N1C` gave an Activity (pM min-1 (mg of protein)-1) of 454. Compound `CC(C)[C@H]1C(=O)N[C@@H](CO)Cc2c[nH]c3c(CCCCO[Si](C)(C)C(C)(C)C)ccc(c23)N1C` has an Activity (pM min-1 (mg of protein)-1) of 403.
